# Patent publication US20220260587A1, “METHOD” (Worg Pharmaceuticals (Hangzhou) Co., Ltd., priority 2019, published 2022)
# Tests used:
# [1] = target: MHCII (HLA-DR2) with bound CLIP (MHCII-CLIP) (Homo sapiens, UniProt P01903+P01911); assay: CLIP displacement assay; type: cell-based; conditions: MBP-specific T cell line 24 hours
# Experimental: Response of MBP-specific T cell line to HLA-DR2 monomers following peptide exchange. Biotinylated HLA-DR2 (DRB1*1501) monomers, with the CLIP peptide bound, were attached to neutravidin coated 96 well plates. Wells were incubated with the indicated concentration of MBP 83-99, a dominant HLA-DR2 restricted epitope of MBP, for 16 hours and the plates washed. Control wells were coated with the DR2 monomer pre-loaded with the MBP 83-99 peptide. A T cell line specific for MBP was incubated with the monomers at 37° C. for 24 hours and response assessed by measurement of secreted IL-2.
# MHCII (HLA-DR2) with bound CLIP (MHCII-CLIP) was affixed to wells of a 96-well plate using neutravidin and biotin. In particular, 96-well plates were coated with 15 μg/ml neutravidin in PBS overnight at 4° C. Plates were washed twice with wash buffer (0.1% BSA/PBS) and blocked with 1% BSA in PBS for 2 hours at room temperature. Plates were washed twice with wash buffer and 0.125 μg/ml of biotin-MHCII-CLIP in PBS was added for a 2-hour incubation at room temperature in a humid atmosphere. Plates were washed 4 times with wash buffer, leaving wells coated in MHCII-CLIP. Positive control wells were coated with MHCII with bound MBP 83-99 (instead of CLIP). […]
# T cell activation was assessed by measuring secreted IL2.
# MHCII on dendritic cells = assay: In vivo MHCII loading assay; set-up: species or system HLA-DRtg mice; conditions: for CD4+ T cell activation (IFNγ) by dendritic cells loaded in vivo: 100 μg peptide subcutaneously, spleen CD11c+ cells 2 hours post injection, co-culture 72 hours, FIG. 4
# Experimental: Response of peptide-specific CD4^+ T cells towards peptide loaded in vivo on dendritic cells. […] 2 h post injection, spleens were dissected and CD11c^+ cells (dendritic cells) were isolated. These CD11c^+ cells were co-cultured with peptide-specific CD4+ cells for 72 h at 37° C. IFNγ was measured in the supernatant of these cultures to evaluate the response to peptide by the CD4^+ T cells.
# In particular, HLA-DRtg mice were injected with 100 μg of peptide in 100 μl PBS subcutaneously in the flank. Control animals received a subcutaneous injection of 100 μl PBS. After 2 hours, spleens were harvested and single-cell suspensions were made. CD11c^+ cells (splenic dendritic cells) were positively selected using CD11c microbeads according to the manufacturer's instructions (Miltenyi Biotec, Bergisch Gladbach, Germany). Average purities of >92% were reached.
# 1×10^5 CD11c^+ cells were co-cultured with 1×10^5 CD4^+ cells (primary T cells) in round bottom 96-well plates in X-vivo 15 medium (supplemented with 2 mM L-glutamine, 50 U/mL penicillin and 50 U/mL streptomycin; Lonza). The CD4^+ cells were isolated from HLA-DRtg mice that were immunised subcutaneously in the base of the tail with 50 μg peptide emulsified in CFA (peptide/CFA). Ten days after immunisation, draining lymph nodes (LN) and spleens were harvested. LN cells and splenocytes were isolated and CD4^+ T cells were isolated by negative selection using Magnisort Mouse CD4 Isolation kit (ThermoFisher Scientific) according to the manufacturer's instructions.
# After 72 hours, supernatant of the CD11c^+-CD4^+ co-cultures was collected. CD4^+ T cell activation was analysed by IFNγ ELISA (R&D Systems, Abingdon, UK). In a parallel experiment, CD4^+ T cell responses towards peptide added in vitro were assessed to make sure the T cells recognize the peptides presented by the CD11c^+ cells.
# MHCII = conditions: test peptides of the competition assay; cited from earlier work
# [2] = system: response to protein antigen (SAg) in lymph node and spleen cells; assay: Ex vivo tolerance assay; type: in vivo, HLA-DR transgenic mice; conditions: dose-escalating subcutaneous injections (0,1; 1; 10 and 3×100 μg), IFNg response to SAg, FIG. 5
# Experimental: Response to protein antigen in lymph nodes (A) and spleens (B) of peptide-treated and non-treated mice. HLA-DR transgenic mice were treated with a dose-escalating regime of subcutaneous injections (0,1; 1; 10 and 3×100 μg every other day) of a tolerogenic (peptide Q) or non-tolerogenic (peptide P) peptide, or control injections (PBS). Afterwards, mice were immunized with peptide antigen in CFA and 10 days later, lymph nodes and spleens were dissected. Lymph node and spleen cells were cultured in vitro for 3 days at 37° C. in the presence of protein antigen (SAg) or positive control (PPD). The response of the cells towards the protein antigen was evaluated by measuring IFNg levels in supernatant of the cultures. *p<0.05
# HLA-DRtg mice were injected subcutaneously in the flank region with 0.1 μg, 1 μg and 10 μg of peptide on days −15, −13 and −11 respectively, followed by 3 injections of 100 μg peptide on days −8, −6 and −4 (dose escalation schedule). On day 0, the mice were immunised subcutaneously in the base of the tail with 50 μg antigen (parental peptide) emulsified in CFA (peptide/CFA).
# Ten days after immunisation, draining lymph nodes (LN) and spleens were harvested. […]
# IFNγ concentrations in supernatants were assessed by cytokine ELISA (R&D Systems, Abingdon, UK) and cell activation was measured.
# EAE = conditions: cited from earlier work
# Chain of MHCII (HLA-DR2) with bound CLIP (MHCII-CLIP) (P01903 26-254): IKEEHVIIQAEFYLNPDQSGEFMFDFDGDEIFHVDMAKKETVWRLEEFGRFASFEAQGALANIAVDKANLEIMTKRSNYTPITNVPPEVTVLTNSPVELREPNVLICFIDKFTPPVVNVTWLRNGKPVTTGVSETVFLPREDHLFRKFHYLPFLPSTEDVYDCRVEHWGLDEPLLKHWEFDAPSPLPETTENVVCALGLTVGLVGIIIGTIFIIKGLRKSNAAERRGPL
# Chain of MHCII (HLA-DR2) with bound CLIP (MHCII-CLIP) (P01911 30-227 limits assumed): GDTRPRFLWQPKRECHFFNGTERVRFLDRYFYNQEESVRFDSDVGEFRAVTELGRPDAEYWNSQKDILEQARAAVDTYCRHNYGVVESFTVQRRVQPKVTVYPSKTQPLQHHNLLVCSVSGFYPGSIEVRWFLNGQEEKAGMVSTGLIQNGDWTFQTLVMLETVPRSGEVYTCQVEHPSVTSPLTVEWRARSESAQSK
substance,measurement,setting,value
ENPVVHFFKNIVTPRIP [MBP 83-99],T cell activation (secreted IL2),[1]; MBP 83-99 at 3 μM added to MHCII-CLIP (CLIP monomer) for 16 hours,T cells are activated
same,T cell activation (secreted IL2),[1]; MBP 83-99 at 30 μM added to MHCII-CLIP (CLIP monomer) for 16 hours,T cells are activated
GILVSYQIKVK (H-GILVSYQIKVK-NH2) [Peptide N],CD4+ T cell activation (IFNγ) by dendritic cells loaded in vivo,MHCII on dendritic cells,did not cause T cell activation
same,HLA-DR binding,MHCII on dendritic cells; designation in legend of FIG. 4,HLA-DR non-binding
GLKMFPDLTKVYSTD (H-GLKMFPDLTKVYSTD-NH2) [Peptide L],affinity for MHCII (known),MHCII,good affinity
KKEIFKKISRDKSVTIYLEKK (H-KKEIFKKISRDKSVTIYLEKK-NH2) [Peptide M],affinity for MHCII (known),MHCII,poor affinity
KKIFKKISRDKSVTIYLKK (H-KKIFKKISRDKSVTIYLKK-NH2) [Peptide P],tolerogenicity,[2],non-tolerogenic
KKKGILVSYQIKVKKKK (H-KKKGILVSYQIKVKKKK-NH2) [Peptide 0],CD4+ T cell activation (IFNγ) by dendritic cells loaded in vivo,MHCII on dendritic cells,did
KKKIFKKISRDKSVTIYLKKK (H-KKKIFKKISRDKSVTIYLKKK-NH2) [Peptide Q],tolerogenicity,[2],tolerogenic
LILLPLLANNRERRGIALDGKIKHEDTNLASSTIIKEG [Peptide K],affinity for MHCII (known),MHCII,poor affinity
"MBP peptide 89-101: myelin basic protein (MBP) peptide 89-101, immunodominant antigen after immunisation (PHLIRLFSRDAPG; UniProt P02686 89-101, looked up, fragment)",inducing tolerance,EAE; administered in solution,ineffective
same,immunogen: priming for T cell reactivity and induction of EAE,EAE; after immunisation,very effective immunogen
"NPILLWQPIPVHTVPLSEDQ (H-NPILLWQPIPVHTVPLSEDQ-NH2) [Peptide J, reference compound]",affinity for MHCII (known),MHCII,good affinity
